Counter-ions that a name gives are not always drawn.
Assays:
[1] = in vitro metabolic stability in monkey plasma; settings: for PLASMA STABILITY Monkey: prodrug remaining within the 60 min incubation time; for stability in monkey plasma (in words): 30 min and 60 min
[2] = in vitro metabolic stability in mouse plasma; settings: for PLASMA STABILITY Mouse: prodrug remaining within the 60 min incubation time; for stability in mouse plasma (in words): 30 min and 60 min
[3] = in vitro metabolic stability in human plasma; settings: for PLASMA STABILITY Human: prodrug remaining within the 60 min incubation time; for stability in human plasma (in words): 30 min and 60 min
[4] = in vitro metabolic stability in pig plasma; settings: 30 min and 60 min
[5] = DON release in mouse plasma after oral administration of prodrugs; type: in vivo; settings: mice, p.o., 30 minutes and 5 hours after dosing, compared to DON
Method: Procedure for Pharmacokinetic analysis for DON release from its prodrugs: DON is extracted from samples (50 μL) with 250 μL methanol containing Glutamate-d5 (10 μM ISTD) by vortexing in low retention tubes. Samples are centrifuged at 16,000×g for 5 minutes to precipitate proteins. Supernatants (200 μL) are moved to new tube and dried at 45° C. under vacuum (approximately 1 hour). To each tube, 50 μL of 0.2 M sodium bicarbonate buffer (pH 9.0) and 100 μL dabsyl chloride stock is added. After vortexing, samples are incubated at 60° C. for 15 minutes to derivatize.

SMILES: CCOC(=O)[C@H](CCC(=O)C=[N+]=[N-])NC(=O)OC(C)OC(=O)C(C)(C)C (mixture of isomers) [Compound 32, Ethyl 6-diazo-2-(((1-(pivaloyloxy)ethoxy)carbonyl)amino)-5-oxohexanoate]
- PLASMA STABILITY Monkey [1]: 75%
- PLASMA STABILITY Mouse [2]: 0%
- PLASMA STABILITY Human [3]: 88%

SMILES: CC(C)OC(=O)[C@H](CCC(=O)C=[N+]=[N-])NP(=O)(Oc1ccccc1)Oc1ccccc1 [Compound 4, Isopropyl 6-diazo-2-((diphenoxyphosphoryl)amino)-5-oxohexanoate]
- stability in monkey plasma (in words) [1]: stable
- stability in mouse plasma (in words) [2]: unstable
- stability in pig plasma (in words) [4]: stable
- stability in human plasma (in words) [3]: stable

SMILES: CC(C)OC(=O)C(CCC(=O)C=[N+]=[N-])NP(=O)(NC(CCC(=O)C=[N+]=[N-])C(=O)OC(C)C)Oc1ccccc1 (stereo not shown) [Compound 7, 1-methylethyl 2,6-bis[4-(1λ^5-diazynylidene)-3-oxobutyl]-9-methyl-7-oxo-4-phenoxy-8-oxa-3,5-diaza-4-phosphadecan-1-oate 4-oxide]
- stability in monkey plasma (in words) [1]: stable
- stability in mouse plasma (in words) [2]: unstable
- stability in pig plasma (in words) [4]: stable
- stability in human plasma (in words) [3]: stable

SMILES: Cc1oc(=O)oc1COC(=O)N[C@@H](CCC(=O)C=[N+]=[N-])C(=O)OC(C)C [Compound 13, 1-Methylethyl 6-(1λ^5-diazynylidene)-N-{[(5-methyl-2-oxo-1,3-dioxol-4-yl)methoxy]carbonyl}-5-oxo-L-norleucinate]
- PLASMA STABILITY Monkey [1]: 0%
- PLASMA STABILITY Mouse [2]: 0%
- PLASMA STABILITY Human [3]: 0%

SMILES: C[C@H](N)C(=O)N[C@@H](CCC(=O)C=[N+]=[N-])C(=O)O [Compound 23, 2-(2-Aminopropanamido)-6-diazo-5-oxohexanoic acid]
- DON release / exposure in mouse plasma upon oral administration (in words) [5]: little DON release

SMILES: CC(C)C[C@H](N)C(=O)N[C@@H](CCC(=O)C=[N+]=[N-])C(=O)O [Compound 26, 2-(2-Amino-4-methylpentanamido)-6-diazo-5-oxohexanoic acid triethylammonium salt]
- DON release / exposure in mouse plasma upon oral administration (in words) [5]: some release

SMILES: CC(OC(=O)N[C@@H](CCC(=O)C=[N+]=[N-])C(=O)O)OC(=O)C(C)C (stereo partly shown) [Compound 29, 6-Diazo-2-(((1-(isobutyryloxy)ethoxy)carbonyl)amino)-5-oxohexanoic acid triethylammonium salt]
- DON release / exposure in mouse plasma upon oral administration (in words) [5]: little DON release

SMILES: CC(OC(=O)N[C@@H](CCC(=O)C=[N+]=[N-])C(=O)O)OC(=O)C(C)(C)C (stereo partly shown) [Compound 30, 6-Diazo-2-(((1-(pivaloyloxy)ethoxy)carbonyl)amino)-5-oxohexanoic acid triethylammonium salt]
- DON release / exposure in mouse plasma upon oral administration (in words) [5]: little DON release

SMILES: CCOC(=O)[C@H](CCC(=O)C=[N+]=[N-])NC(=O)[C@@H](N)Cc1c[nH]c2ccccc12 [Compound 34, Ethyl 2-(2-amino-3-(1H-indol-3-yl)propanamido)-6-diazo-5-oxohexanoate]
- PLASMA STABILITY Monkey [1]: 4%
- PLASMA STABILITY Mouse [2]: 0%
- PLASMA STABILITY Human [3]: 12%

SMILES: CCOC(=O)[C@H](CCC(=O)C=[N+]=[N-])NC(=O)OCc1oc(=O)oc1C [Compound 36, Ethyl 6-diazo-2-((((5-methyl-2-oxo-1,3-dioxol-4-yl)methoxy)carbonyl)amino)-5-oxohexanoate]
- PLASMA STABILITY Monkey [1]: 0%
- PLASMA STABILITY Mouse [2]: 0%
- PLASMA STABILITY Human [3]: 0%

SMILES: CC(C)OC(=O)[C@H](CCC(=O)C=[N+]=[N-])NC(=O)OCOC(=O)C(C)(C)C [Compound 42, Isopropyl 6-diazo-5-oxo-2-((((pivaloyloxy)methoxy)carbonyl)amino) hexanoate]
- PLASMA STABILITY Monkey [1]: 0%
- PLASMA STABILITY Mouse [2]: 0%
- PLASMA STABILITY Human [3]: 9%

SMILES: C=CCOC(=O)N[C@@H](CCC(=O)C=[N+]=[N-])C(=O)O [LTP 073]
- DON release / exposure in mouse plasma upon oral administration (in words) [5]: below the limit of quantitation
